One assay deals with NC(11-55) (Human immunodeficiency virus type 1, UniProt P12493). Kind of assay: NC inhibition assay (NC-induced cTAR DNA destabilization, fluorescence). Type of assay: biochemical, HIV-1. The conditions noted are these: for inhibition at 100 µM: single point screening, positive = >25% inhibition at 100µM. An outline of the steps: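 Doubly labelled cTAR (0.1 µM, Alexa488/Dabcyl) pre-complexed with 1 µM Zn-loaded NC(11-55) for 15 min, then compound added for a further 15 min; run at 20 °C in Tris-HCl pH 7.5, 30 mM NaCl, 0.2 mM MgCl2. Fluorescence read at ex 480/em 520 nm. IC50 taken from dose-response fit of % inhibition of NC-induced fluorescence increase.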

In assay [1] the target is T1, full length (1-55) HIV-1 NCp7 (Human immunodeficiency virus type 1 group M subtype B, UniProt P12493).
T1 construct: recombinant full length (1-55) HIV-1 NCp7 proteins; made in house
Nature of the assay: Electromobility Shift Assay (EMSA), competition for ssDNA binding. The conditions noted are these: NCp7 300 nM, M13mp18 ssDNA; positive = >25% inhibition at 100µM. A digest of the protocol:
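Recombinant NL4-3 NCp7 (300 nM in the pre-mix) was combined with compound in 20 mM Tris-HCl pH 7.4, 2 mM MgCl2, 100 mM NaCl, 1 mM DTT, then M13mp18 ssDNA was added for 25 min at 37 °C. Complexes were run on 1% agarose/0.5x TBE and stained with SybrGold. IC50 is the concentration at which bound ssDNA migrated 50% of the bound–unbound distance (triplicate).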

The subject of assay [2] is HIV-1 reference strain NL4-3. Nature of the assay: MonoCycle assay (TZM-bl cells). Format: cell-based. An outline of the steps:
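TZM-bl cells (20,000/well) were infected with NL4-3 in the presence of five-fold serial inhibitor dilutions. After 48 h, cells were lysed and luciferase luminescence (RLU) was counted. IC50 was derived from the RLU data.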

Where [3] appears, read: Human immunodeficiency virus 1, NL43, TZM-bl, 48 h, read-out: Mono Cycle IC50 nM.
The mark [4] stands for this setting: Human immunodeficiency virus 1, NL43, TZM-bl cells, NL4-3, 48 hours, read-out: Mono Cycle IC50.

Each structure is given as a SMILES string. Like-named read-outs stand apart in the source and are kept apart here.

In the case of `Cc1ccnc(-c2nc(O)c(O)c(C(=O)N[C@H](C)C3CCCCC3)n2)c1` [Compound 19, (R)-N-(1-cyclohexylethyl)-5,6-dihydroxy-2-(4-methylpyridin-2-yl)pyrimidine-4-carboxamide], at NC(11-55), half-maximal inhibition (IC50) was put at 8.5 µM and the inhibition at 100 µM is over 25%. For the same compound, in assay [1], the EMSA screening results is given as “Positive (A compound showing >25% inhibition when tested at 100µM concentration is considered as "positive")”. The IC50 in assay [2] (setting [3]) worked out at 15300 nM.

Consider `O=C(OCC1CCCCC1)c1nc(-c2ncccc2Cl)nc(O)c1O` [Compound 15, cyclohexylmethyl 2-(3-chloropyridin-2-yl)-5,6-dihydroxypyrimidine-4-carboxylate], for which, at NC(11-55), the inhibition at 100 µM was over 25%. In addition, the EMSA screening results in assay [1] is “Positive (A compound showing >25% inhibition when tested at 100µM concentration is considered as "positive")”. The IC50 in assay [2] (setting [4]) was over 50000 nM.

Take `Cc1cccc(-c2nc(O)c(O)c(C(=O)N[C@H](C)C3CCCCC3)n2)n1` [Compound 18, (R)-N-(1-cyclohexylethyl)-5,6-dihydroxy-2-(6-methylpyridin-2-yl)pyrimidine-4-carboxamide]: the values for the IC50 (against NC(11-55); in assay [2] (setting [3])) were 20 µM and 37300 nM, respectively. At NC(11-55), this compound returned an inhibition at 100 µM of over 25%. Moreover, in assay [1], the EMSA screening results is given as “Positive (A compound showing >25% inhibition when tested at 100µM concentration is considered as "positive")”.

`CC(OC(=O)c1nc(-c2ccccn2)nc(O)c1O)C1CCCCC1` (stereo not drawn) [Compound 17, 1-cyclohexylethyl 5,6-dihydroxy-2-(pyridin-2-yl)pyrimidine-4-carboxylate]: the concentration for half-maximal inhibition (IC50) on NC(11-55) was 90 µM; in assay [2] (setting [3]) it was over 50000 nM. For the same compound, at NC(11-55), the inhibition at 100 µM was over 25%. For the same compound, the EMSA screening results in assay [1] is “Negative”.

On NC(11-55), `O=C(NCC1CCCCC1)c1nc(-c2ccccn2)nc(O)c1O` [Compound 1, N-(cyclohexylmethyl)-5,6-dihydroxy-2-(pyridin-2-yl)pyrimidine-4-carboxamide] registered an IC50 of 167 µM and an inhibition at 100 µM of over 25%. In assay [1], the EMSA screening results was “Positive (A compound showing >25% inhibition when tested at 100µM concentration is considered as "positive")”. The IC50 in assay [2] (setting [3]) was over 50000 nM.

As for `COc1ccc(-c2nc(O)c(O)c(C(=O)N[C@H](C)C3CCCCC3)n2)nc1` [Compound 32, (R)-N-(1-cyclohexylethyl)-5,6-dihydroxy-2-(5-methoxypyridin-2-yl)pyrimidine-4-carboxamide], the IC50 at NC(11-55) was determined as 45 µM; in assay [2] (setting [3]) it was 8260 nM. This compound registered an inhibition at 100 µM against NC(11-55) of over 25%. For the same compound, in assay [1], the EMSA screening results is recorded as “Positive (A compound showing >25% inhibition when tested at 100µM concentration is considered as "positive")”.

On NC(11-55), `C[C@@H](NC(=O)c1nc(-c2ncccc2C(F)(F)F)nc(O)c1O)C1CCCCC1` [Compound 30, (R)-N-(1-cyclohexylethyl)-5,6-dihydroxy-2-(3-(trifluoromethyl)pyridin-2-yl)pyrimidine-4-carboxamide] displayed an inhibition at 100 µM of over 25%. In addition, the EMSA screening results in assay [1] was “Positive (A compound showing >25% inhibition when tested at 100µM concentration is considered as "positive")”. In assay [2] (setting [4]), the IC50 is over 50000 nM.

On NC(11-55), `C[C@@H](NC(=O)c1nc(-c2nccc3ccccc23)nc(O)c1O)C1CCCCC1` [Compound 31, (R)-N-(1-cyclohexylethyl)-5,6-dihydroxy-2-(isoquinolin-1-yl)pyrimidine-4-carboxamide] came in with an IC50 of 3.5 µM and an inhibition at 100 µM of over 25%. The EMSA screening results in assay [1] is listed as “Positive (A compound showing >25% inhibition when tested at 100µM concentration is considered as "positive")”. For the same compound, in assay [2] (setting [3]), the IC50 was over 50000 nM.

At NC(11-55), `C[C@@H](NC(=O)c1nc(-c2cc(CCN)ccn2)nc(O)c1O)C1CCCCC1` [Compound 88, (R)-2-(4-(2-aminoethyl)pyridin-2-yl)-N-(1-cyclohexylethyl)-5,6-dihydroxypyrimidine-4-carboxamide] showed an IC50 of 7.5 µM and an inhibition at 100 µM of over 25%. Moreover, the EMSA screening results in assay [1] is reported as “Positive (A compound showing >25% inhibition when tested at 100µM concentration is considered as "positive")”. Moreover, the IC50 in assay [2] (setting [3]) was over 50000 nM.

As for `COc1cccc(-c2nc(O)c(O)c(C(=O)N[C@H](C)C3CCCCC3)n2)n1` [Compound 37, (R)-N-(1-cyclohexylethyl)-5,6-dihydroxy-2-(6-methoxypyridin-2-yl)pyrimidine-4-carboxamide], the IC50 was 29 µM against NC(11-55) and 6910 nM in assay [2] (setting [3]). This compound also yielded an inhibition at 100 µM against NC(11-55) of over 25%. Also, the EMSA screening results in assay [1] is “Positive (A compound showing >25% inhibition when tested at 100µM concentration is considered as "positive")”.

On NC(11-55), `O=C(OCCC1CCCCC1)c1nc(-c2ccccn2)nc(O)c1O` [Compound 12, 2-cyclohexylethyl 5,6-dihydroxy-2-(pyridin-2-yl)pyrimidine-4-carboxylate] returned an IC50 of 57.5 µM and an inhibition at 100 µM of over 25%. Besides, the EMSA screening results in assay [1] is on record as “Negative”. In addition, the IC50 in assay [2] (setting [3]) is over 50000 nM.

The values above are taken from patent publication EP3290412A1, “HIV-1 NUCLEOCAPSID INHIBITORS” (Università degli Studi di Siena, priority 2016, dated 2018).
